The values that follow come from ChEMBL document CHEMBL3046833, “Six new triterpenoid saponins from the leaves of Ilex oblonga and their inhibitory activities against TMV replication” (Chem Pharm Bull (Tokyo), 2007).

In brackets after ≈: the same amount, converted by molar mass.

The test system of test [1] is Tobacco mosaic virus. Put plainly: Antiviral activity against Tobacco mosaic virus (TMV) assessed as inhibition of viral replication at 0.2 mg/ml after 48 hr by leaf disk method relative to control. The class given is functional.
The subject of test [2] is Tobacco mosaic virus. Put plainly: Antiviral activity against Tobacco mosaic virus (TMV) assessed as inhibition of viral replication at 0.025 mg/ml after 48 hr by leaf disk method relative to control. It is filed as functional.
For test [3], the system named is Tobacco mosaic virus. Put plainly: Antiviral activity against Tobacco mosaic virus (TMV) assessed as inhibition of viral replication at 0.1 mg/ml after 48 hr by leaf disk method relative to control. It is filed as functional.
The subject of test [4] is Tobacco mosaic virus. The experiment in a line: Antiviral activity against Tobacco mosaic virus (TMV) assessed as inhibition of viral replication at 0.4 mg/ml after 48 hr by leaf disk method relative to control. The class given is functional.
Test [5] concerns Tobacco mosaic virus. The experiment in a line: Antiviral activity against Tobacco mosaic virus (TMV) assessed as inhibition of viral replication at 0.05 mg/ml after 48 hr by leaf disk method relative to control. The class given is functional.
In test [6] the test system is Tobacco mosaic virus. Put plainly: Antiviral activity against Tobacco mosaic virus (TMV) assessed as inhibition of viral replication after 48 hr by leaf disk method. The class given is functional, organism-based.

Consider `C=C1CC[C@]2(C(=O)O[C@@H]3O[C@H](CO)[C@@H](O)[C@H](O)[C@H]3O)CC[C@]3(C)C(=CC[C@@H]4[C@@]5(C)CC[C@H](O)[C@@](C)(CO)[C@@H]5CC[C@]43C)C2[C@]1(C)O` (stereo not given in full) [Oblonganoside E], for which the inhibition at 200 µg/mL in the test on Tobacco mosaic virus [1] turned out to be 21.5%.

In the case of `C=C1C2C3=CC[C@@H]4[C@@]5(C)CC[C@H](O)[C@@](C)(CO)[C@@H]5CC[C@@]4(C)[C@]3(C)CC[C@@]2(C(=O)O[C@@H]2O[C@H](CO)[C@@H](O)[C@H](O)[C@H]2O)CC[C@H]1C` (stereo not given in full), the inhibition at 200 µg/mL in the test with Tobacco mosaic virus [1] turned out to be 29.6%.

As to `C=C1C2C3=CC[C@@H]4[C@@]5(C)CC[C@H](O[C@@H]6OC[C@@H](O)[C@H](O)[C@H]6O)C(C)(C)[C@@H]5CC[C@@]4(C)[C@]3(C)CC[C@@]2(C(=O)O[C@@H]2O[C@H](CO)[C@@H](O)[C@H](O)[C@H]2O)CC[C@H]1C` (stereo not given in full) [OBLONGANOSIDE D], in the test with Tobacco mosaic virus [1], the inhibition at 200 µg/mL came out at 37.7%.

Turning to `CC1=C2C3=CC[C@@H]4[C@@]5(C)CC[C@H](O[C@@H]6OC[C@@H](O)[C@H](O)[C@H]6O)C(C)(C)[C@@H]5CC[C@@]4(C)[C@]3(C)CC[C@@]2(C(=O)O[C@@H]2O[C@H](CO)[C@@H](O)[C@H](O)[C@H]2O)CC[C@H]1C`, the inhibition at 200 µg/mL in the test on Tobacco mosaic virus [1] amounted to 33%.

Turning to `CC1=C2C3=CC[C@@H]4[C@@]5(C)CC[C@H](O)[C@@](C)(CO)[C@@H]5CC[C@@]4(C)[C@]3(C)CC[C@@]2(C(=O)O[C@@H]2O[C@H](CO)[C@@H](O)[C@H](O)[C@H]2O)CC[C@H]1C`, the inhibition at 200 µg/mL in the test on Tobacco mosaic virus [1] stood at 47.3%.

For `CC1=C2C3=CC[C@@H]4[C@@]5(C)CC[C@H](O[C@@H]6OC[C@@H](O)[C@H](O)[C@H]6O)[C@@](C)(CO)[C@@H]5CC[C@@]4(C)[C@]3(C)CC[C@@]2(C(=O)O[C@@H]2O[C@H](CO)[C@@H](O)[C@H](O)[C@H]2O)CC[C@H]1C` [OBLONGANOSIDE C], in the test with Tobacco mosaic virus [1], the inhibition at 200 µg/mL came out at 38.6%.

Turning to `CC1=C(C)[C@H]2C3=CC[C@@H]4[C@@]5(C)CC[C@@H]6O[C@H](CO)OC[C@@]6(C)[C@@H]5CC[C@@]4(C)[C@]3(C)CC[C@@]2(C(=O)O[C@@H]2O[C@H](CO)[C@@H](O)[C@H](O)[C@H]2O)CC1` [Oblonganoside A], the inhibition at 25 µg/mL in the test on Tobacco mosaic virus [2] worked out at 10.1%. Also, the inhibition at 100 µg/mL with Tobacco mosaic virus [3] is 61.9%. Further, the inhibition at 200 µg/mL in the test with Tobacco mosaic virus [1] was found to be 80.3%. The Imax with Tobacco mosaic virus [4] turned out to be 87.3%. Moreover, in the test on Tobacco mosaic virus [5], the inhibition at 50 µg/mL came to 30.1%. Besides, in the test on Tobacco mosaic virus [6], the EC50 came out at 74 µg/mL (≈ 110 µM).

Regarding `CC1=C(C)[C@H]2C3=CC[C@@H]4[C@@]5(C)CC[C@H](O[C@@H]6OC[C@@H](O)[C@H](O)[C@H]6O)C(C)(C)[C@@H]5CC[C@@]4(C)[C@]3(C)CC[C@@]2(C(=O)O[C@@H]2O[C@H](CO)[C@@H](O)[C@H](O)[C@H]2O)CC1` [Oblonganoside B], the inhibition at 200 µg/mL with Tobacco mosaic virus [1] was determined as 56.4%.

With `CC1=C(C)[C@H]2C3=CC[C@@H]4[C@@]5(C)CC[C@H](O)[C@@](C)(CO)[C@@H]5CC[C@@]4(C)[C@]3(C)CC[C@@]2(C(=O)O[C@@H]2O[C@H](CO)[C@@H](O)[C@H](O)[C@H]2O)CC1`, in the test with Tobacco mosaic virus [1], the inhibition at 200 µg/mL turned out to be 41.1%.

In the case of `C=C1CC[C@]2(C(=O)O[C@@H]3O[C@H](CO)[C@@H](O)[C@H](O)[C@H]3O)CC[C@]3(C)C(=CC[C@@H]4[C@@]5(C)CC[C@H](O[C@@H]6OC[C@@H](O)[C@H](O)[C@H]6O)C(C)(C)[C@@H]5CC[C@]43C)C2[C@]1(C)O` (stereo not given in full) [Oblonganoside F], in the test with Tobacco mosaic virus [1], the inhibition at 200 µg/mL was found to be 39.7%.
